Test results: article PMC13168289, “Potent acridone antimalarial against all three life stages of Plasmodium” (Nature Communications, 2026)

Columns and labels:
[1] = cytotoxicity against HepG2 cells; assay type: cell-based; conditions: human, HepG2 cells; read-out: inhibition IC50 vs HepG2
Method: Cytotoxicity was evaluated in human HepG2 liver cells, using an MTT assay. Briefly, HepG2 cells were cultured in complete Dulbecco’s modified Eagle’s medium (DMEM; Gibco-Invitrogen, No. 11995-065) prepared by supplementing DMEM with 10% heat inactivated FBS (Gibco-Invitrogen, No. 16000-036), 100 units/mL penicillin, and 100 µg/mL streptomycin. Cell viability was assessed using trypan blue. Ninety-six-well plates were seeded with 2 × 10^4 cells per well and incubated at 37 °C overnight in a humidified 5% CO2 atmosphere. Test compound plates were prepared with an INTEGRA assist plus station and 96-well plates containing 11 duplicate 2-fold serial dilutions of test compound suspended in DMSO. The diluted test compound was then added to the corresponding well preseeded with HepG2 cells. […] After incubation, 20 µL of a 0.1 mg/mL solution of resazurin diluted in PBS was added to each well, and all plates were subsequently incubated for 3–4 h in an incubator. Absorbance was determined with the Molecular Devices SpectraMax plate reader. Three independent experiments, each in duplicate, were performed, and the IC50 values were determined using GraphPad Prism software (Version 10) using the non-linear regression equation (sigmoidal dose-response, variable slope).

[2] = host hepatocyte viability in the P. cynomolgi assay; assay type: cell-based, rhesus; conditions: rhesus monkey; radical cure mode; read-out: cytotoxicity CC50
Method: The liver-stage P. cynomolgi assay was designed to identify anti-hypnozoite drugs utilizing a 384-well in vitro culture system[31],[37]. Briefly, cryopreserved primary simian hepatocytes (donor lots XGB, OQB, and QHO: BioIVT, Inc.) were seeded in collagen-coated 384-well plates and infected with P. cynomolgi bastianellii (B strain) sporozoites dissected from infected Anopheles dirus mosquitoes. Test compounds were solubilized in 100% DMSO and serially diluted 2-fold to generate up to a 12-point dose-response curve, maintaining a final DMSO concentration of 0.1% across all wells. Two distinct treatment modes were evaluated. For the prophylactic assay, to assess the prevention of infection, compound exposure began 1-hour post-infection with daily media changes on Days 1 and 2. For the radical cure assay, to assess activity against established liver forms, drugs were administered daily from Day 4 through Day 7 post-infection. […] For readout on Day 8, plates were fixed and stained via immunofluorescence to visualize parasite forms (hypnozoites and schizonts) and hepatocyte nuclei, and images were acquired using an Operetta CLS high-content imaging system (PerkinElmer). Host hepatocyte viability was measured in parallel to determine compound toxicity. Parasite forms were automatically quantified using Harmony 4.9 software, and percent inhibition and toxicity were calculated relative to in-plate DMSO vehicle controls. IC50 and CC50 (half-maximal cytotoxic concentrations) were determined by fitting dose-response data to a four-parameter logistic (variable slope) model using a custom Python script incorporating a grid search algorithm.

O=C1C(O)=C([C@H]2CC[C@H](c3ccc(Cl)cc3)CC2)C(=O)c2ccccc21 [ATV, atovaquone]
IC50 at 24 h [1]: 61.2 µM | CC50 at 4 days [2]: 3.96 µM
